From US10799590B2, “Compositions containing a bitter tastant and at least one sophorolipid, and methods of reducing bitter taste attributed to a bitter tastant in an edible composition” (The United States of America, as Represented by the …, priority 2015, dated 2020)

System: cultured human fungiform taste papillae cells (HBO cells)
Experiment: Calcium imaging of cultured human fungiform taste papillae (HBO) cells: response frequency, estimation of sweet potency
Assay type: cell-based
Text: In vitro cell-based assay of sweet property. Establishment and maintenance of cultures of human fungiform taste papillae cells (HBO cells): We previously established the current proprietary protocol (Ozdener, H., et al., Chem. Senses, 31(3): 279-90 (2006); Ozdener, M. H., et al., Chem. Senses, 36(7): 601-12 (2011); Ozdener, H., et al., Isolation and culture of human fungiform taste papillae cells, J. Vis. Exp., 2012 May 17;(63):e3730) which allowed us to culture human fungiform taste papillae cells retaining their physiological and molecular characteristics for more than a year. […] The human fungiform taste papillae cells were cultured according to protocols that we have published (Ozdener et al. 2006, Ozdener et al. 2011). Human fungiform taste papillae were removed and immediately placed into an isolation solution followed by enzymatic digestion. Digested fungiform papillae were then gently minced with a surgical razor and seeded on collagen type-1 coated coverslips and incubated at 36° C. in a humidified environment containing 5% CO2. The fungiform taste papillae cells were cultured in Iscove's Modified Dulbecco's medium containing 10% fetal bovine serum, 1:5 ratio of MCDB (Molecular, Cellular, and Developmental Biology) 153 medium, and a triple cocktail of antibiotics (100 U/mL/100 μg/mL, penicillin/streptomycin, and 0.5 μg/mL fungizone). Culture medium was replaced every 5-7 days by one-third of fresh culture medium. Human fungiform taste papillae cells have been maintained in culture for a period of more than 1 year without loss of viability and with retention of the molecular and biochemical properties of acutely isolated taste cells (Ozdener et al., 2011). Calcium imaging: Cultured taste cells grown for 3-4 days glass coverslips which were loaded for 30-60 min with the calcium sensitive dye fura-2 by incubating the cells in Ringer solution (145 mM NaCl, 5 mM KCl, 1 mM MgCl2, 1 mM CaCl2, 1 mM Na-pyruvate, 20 mM Hepes-Na and Cellobiose 15 mM, pH 7.2 with osmolarity adjusted to 300-310 by 5M NaCl) supplemented with […] (Molecular Probes Inc., Eugene, Oreg.) and 10 mg/ml Pluronic® F127 (Molecular Probes Inc.). Coverslips were then placed in a recording chamber and continuously bathed with Ringer solution superfusion. Stimuli were dissolved in Ringer and then pH and osmolarity readjusted if needed. Cells were exposed to sweet ([…]), bitter mixture (PTC (phenylthiocarbamide)) 2mM+Salicin 5 mM+Denatonium 2 mM), guaifenesin (GF, 3 mM) and acetaminophen (APAP, 3 mM), and various sophorolipids stimuli: sophorose, sophorolipid palmitic acid, sophorolipid stearic acid, sophorolipid oleic acid. […]

## OC[C@H]1O[C@@H](O[C@@H]2[C@@H](O)[C@H](O)[C@@H](CO)O[C@H]2O)[C@H](O)[C@@H](O)[C@@H]1O [Sophorose, 2-O-β-D-glucopyranosyl-β-D glucopyranose]
Cultured human taste cells, concentration 292 uM
  %-responsive cells: 16.05%
Tested at 292 uM, adjusted against sucralose 5 mM
  Concentration adjusted response frequency: 274.89
